“Also recorded” adds a separate entry of the source. Where no end group is shown, it is not given here.
Tests used:
Format in all cases: cell-based
[1] = system: whole-cell swelling-activated currents in adult rat astrocytes; assay: Whole-cell (Nystatin perforated patch) currents in adult rat astrocytes, isotonic and hypotonic swelling
Protocol: It is considered that part of the swelling activated currents are attributable to SACs. To illustrate this embodiment, adult rat astrocytes were cultured as described above. Whole cell current was measured by the Nystatin perforated patch. Bath saline was the same as in Example 2. Pipette saline consisted of: KCl 80 mM, K2SO4 30 mM, NaCl 10 mM, MgSO4 3 mM, CaCl20.13 mM, EGTA 0.23 mM and Hepes 10 mM, pH 7.3. Nystatin was dissolved in pipette saline to a final concentration of […]. After patch formation, access resistance was allowed to drop to ˜15 MW (uncompensated), after which the series resistance compensation was set at ˜65%, and prediction was set to ˜75%. Whole cell capacitance measurements ranged from ˜25–50 pF. Whole cell currents were monitored by either a voltage step protocol shown in FIG. 7, or by 600 ms voltage ramps. During hypotonic swelling the cell was perfused initially with isotonic saline (bath saline with 160 mM mannitol replacing 80 mM NaCl) before switching to hypotonic saline (isotonic saline minus 140 mM mannitol). The BPS-8 perfusion system was used to rapidly (<200 ms) change the bathing solution. Peak currents were measured at 3–5 ms into voltage steps.

[2] = system: stretch-activated channels (SACs); assay: Outside-out patch clamp of stretch-activated channels in adult rat astrocytes
Protocol: This embodiment describes the effect of the peptide GsMTx-4 variant (SEQ ID NO:1) on SACs. To illustrate this, adult rat astrocytes which are known to have SACs, were used. Adult rat astrocytes were cultured according to standard methods. Briefly, activated adult astrocytes isolated from gelatin-sponge implants from adult Sprague-Dawley rat brains obtained according to the method of Langan et al. (1995, Glia, 14:174–184) were used at passage numbers 2–4. Astrocytes were maintained in DMEM, 10% fetal bovine serum and 1% Penicillin/Streptomycin and were used in experiments between 2 and 5 days after passage. Cells between passage 4 and 35 expressed SACs with the same properties Both stellate process bearing cells and flat polygonal (fibroblast-like) cells were used.
The cultured astrocytes were used for single channel and whole cell recorndings. For single channel patch clamp, patch voltage was controlled by an Axopatch 200B (Axon Instruments, Calif.) and currents were recorded directly onto computer disk via a Labmaster DMA Ver. B (Scientific Instruments, Calif.) board controlled by pClamp6-Clampex acquisition software (Axon Instruments, California). Currents were sampled at 10 KHz and low-pass filtered at 2 KHz through the 4 pole Bessel filter on the Axopatch 200B. Experimental voltage protocols were controlled by pClamp6-Clampex. All potentials are defined with respect to the extracellular surface.
Electrodes were pulled on a Model PC-84 pipette puller (Brown-Flaming Instruments, Calif.), painted with Sylgard 184 (Dow Corning Corp. Midland Mich.) and fire polished. Electrodes were filled with KCl saline (KCl 140 mM, EGTA 5 mM, MgSO4 2 mM, Hepes 10 mM, pH 7.3) and had resistances ranging from 3–8 MWBath saline consisted of NaCl 140 mM, KCl 5 mM, MgSO4 1 mM, CaCl2 1 mM, glucose 6 mM and Hepes 10 mM, pH 7.3.
Pressure and suction were applied to the pipette by a pressure clamp. Pressure values represent pressure in the pipette, i.e., the intracellular side of the membrane in outside-out patches. Suction applied to a cell-attached patch has the same sign as pressure applied to an outside-out patch. The rise time of pressure changes at the tip were determined by monitoring the rate of current change when pressure steps were applied to an electrode containing 150 mM KCl solution and placed in a water bath. The t10-90 was ˜5 ms as determined by exponential fits to the current decay. Perfusion of toxin samples was performed by a pressurized bath perfusion system BPS-8 (ALA scientific instruments, NY) with 8 separate channels.
Off-line data analysis was performed with pClamp6 analysis software and Origin 5.0. Maximal unitary channel currents were determined via Guassian fits to the peaks of all points amplitude histograms generated from records containing 1–3 channels. […] Some of these records were analyzed by determining all of the step-like changes in current during the pressure application and selecting the average maximal current level as the unitary current. The data analyzed by this method was in good agreement with the unitary current levels determined by analysis of all points amplitude histograms from single channel patches.
The outside out patches from adult astrocytes as described above were used for testing the HPLC fractions obtained in Example 1. The HPLC fractions were lyophilized, redissolved at a 1:1000 dilution and perfused onto outside out patches. […] The fraction containing the single peak in FIG. 1D was then tested for activity against SACs. […] The patch was held at −50 mV, and the pressure pulse is shown above the records.
The entire experiment is comprised of 60 pressure steps: steps 1–20 occur before GsMTx-4 application; steps 21–38 while GsMTx-4 is being perfused; steps 39–60 occur during washout. Each 500 ms pressure step was separated by 1.5 seconds at 0 pressure.
The association rate of the toxin was determined by applying GsMTx-4 to an outside-out patch while the channels were activated by stretch (FIG. 5). […]

[3] = system: MSC currents in normal rat kidney cells; assay: Outside-out patch clamp of mechanosensitive channel currents in normal rat kidney cells; conditions: 5 μM
Protocol: NRK cell culture: Normal rat kidney cells (CCA identifier is 49F) at passages 20–25, were maintained in DMEM, 5% fetal bovine serum and 1%
Penicillin/Streptomycin. Cells were plated onto poly-L-lysine coated cover-slips, and used in experiments between 2 and 6 days after passage.
Electrophysiology: An Axopatch 200B (Axon Instruments, California) was used for patch clamping, while experimental protocols and data acquisition were controlled by Axon Instruments pClamp8 software via a Digidata 1322A acquisition system. Currents were sampled at 10 KHz and low-pass filtered at 2 KHz through the 4 pole Bessel filter on the Axopatch 200B. All potentials are defined with respect to the extracellular surface. Electrodes were pulled on a Model PC-84 pipette puller (Brown-Flaming Instruments, California), painted with Sylgard 184 (Dow Corning Corp. Midland Mich.) and fire polished. Electrodes were filled with KCl saline (KCl 140 mM, EGTA 5 mM, MgSO4 2 mM, Hepes 10 mM, pH 7.3) and had resistances ranging from 10–20 MΩ. Bath saline consisted of NaCl—140 mM, KCl—5 mM, CaCl2—2 mM, MgSO4—0.5 mM, glucose—6 mM and Hepes—10 mM, pH 7.3. Pressure and suction were applied to the pipette by a HSPC-1 pressure clamp (ALA Scientific Instruments, New York) controlled by the pClamp software. Perfusion of toxin samples was performed by a pressurized local perfusion system BPS-8 (ALA scientific instruments, NY) with 8 separate channels. Off-line data analysis was performed with Clampfit and Origin 6.1 software.

[Cl-].[Cs+] [CsCl, reference compound]
effect on whole-cell current in isotonic saline ([1]; CsCl, hyperpolarized potentials): significant decrease in current

O=S(=O)(O)c1cc(N=C=S)ccc1C=Cc1ccc(N=C=S)cc1S(=O)(=O)O [DIDS, reference compound]
shift in reversal potential of swelling-activated current ([1]; 50 μM DIDS, average n=6): −33 mV
effect on swelling-activated current ([1]; 50 μM DIDS, especially at depolarized potentials): significant reduction in current

GCLEFWWKCNPNDDKCCRPKLKCSKLFKLCNFSSG (not fully specified (C-terminus); ends and bridges not checked; listed as Grammastola spatulata) [SEQ ID NO.1, 35 amino acids with C-term glycine amide]
SAC blocking activity [2]: has SAC blocking activity

cloned: GsMTx4 liberated by thrombin from a thioredoxin fusion protein, with three extra amino acids at the N-terminus (SGMGCLEFWWKCNPNDDKCCRPKLKCSKLFKLCNFSF; ends and bridges not checked; cysteine pairing not given here)
block of mechanosensitive channels [3]: blocked; also recorded: active in blocking SACs
block of mechanically sensitive current ([3]; outside-out patches held at −50 mV): greater than 75%

synthetic: chemically synthesized GsMTx4 with a C-terminal phenylalanine, folded with GSH/GSSG (GCLEFWWKCNPNDDKCCRPKLKCSKLFKLCNFSF-NH2; disulfide (positions not given here); not fully specified (bridges); also: three intramolecular disulfide bonds, pairing not given here)
block of mechanosensitive channels [3]: active in blocking SACs
block of mechanosensitive channels ([3]; listed as synthetic peptide): blocked
